Assay results: US10954246B2, “Compound of EOC315 Mod.I crystal form and preparation method thereof” (Taizhou EOC Pharma Co., Ltd., priority 2017, dated 2021)
Structures can show the parent of a compound that is named as a salt.

Columns and labels:
[1] = system: PDGFR (Platelet-Derived Growth Factor Receptor) tyrosine kinase; conditions: cited from earlier work
[2] = system: advanced gastric cancers or gastroesophageal junction (GEJ) cancers; assay: Efficacy study of EOC315 with capecitabine and cisplatinum in patients; format: in vivo, human; conditions: combination with capecitabine and cisplatinum
From the text: After at most 6 cycles of cisplatinum treatment, both or either of capecitabine and EOC315 was delivered to a subject in a dosage previously used according to the toxic reaction conditions, until the disease progressed.
Forty-eight subjects in total were enrolled for this study. Forty-five subjects (94%) had tumor metastasis and thirty-five subjects (73%) had more than two metastatic sites thereinto. The livers of 26 subjects (54%) were involved due to the tumors. The major sites involved for the 26 subjects (54%) were gastroesophageal junctions, the major sites involved for 22 subjects (46%) were stomach, and the majority of the subjects got an ECOG score of 1 (n=41, 85%).
Thirty-nine subjects completed at least one course of treatment and got therapeutic effect evaluation. The objective response rate (ORR) was 67%. One subject (2.6%) achieved the complete response. […] It was evaluated that the objective response generally occurred in the previous two cycles of treatment and lasted for a long time, which was related closely to the duration of treatment received by the subjects. The anti-tumor effect was not related to tumor tissue type, the primary site, whether or not liver is involved, or the study center. Median progression-free survival (PFS) was 4.5 months. […] The median time to progression for patients showing tumor remission was 6.4 months. Median overall survival (OS) was estimated to be 7.8 months, and the 1-year survival rate was 33%.

[3] = molecular target: VEGFR-2 (Vascular Endothelial Growth Factor Receptor-2) tyrosine kinase (Homo sapiens, UniProt P35968); conditions: cited from earlier work
Chain of VEGFR-2 (Vascular Endothelial Growth Factor Receptor-2) tyrosine kinase (P35968 20-1356): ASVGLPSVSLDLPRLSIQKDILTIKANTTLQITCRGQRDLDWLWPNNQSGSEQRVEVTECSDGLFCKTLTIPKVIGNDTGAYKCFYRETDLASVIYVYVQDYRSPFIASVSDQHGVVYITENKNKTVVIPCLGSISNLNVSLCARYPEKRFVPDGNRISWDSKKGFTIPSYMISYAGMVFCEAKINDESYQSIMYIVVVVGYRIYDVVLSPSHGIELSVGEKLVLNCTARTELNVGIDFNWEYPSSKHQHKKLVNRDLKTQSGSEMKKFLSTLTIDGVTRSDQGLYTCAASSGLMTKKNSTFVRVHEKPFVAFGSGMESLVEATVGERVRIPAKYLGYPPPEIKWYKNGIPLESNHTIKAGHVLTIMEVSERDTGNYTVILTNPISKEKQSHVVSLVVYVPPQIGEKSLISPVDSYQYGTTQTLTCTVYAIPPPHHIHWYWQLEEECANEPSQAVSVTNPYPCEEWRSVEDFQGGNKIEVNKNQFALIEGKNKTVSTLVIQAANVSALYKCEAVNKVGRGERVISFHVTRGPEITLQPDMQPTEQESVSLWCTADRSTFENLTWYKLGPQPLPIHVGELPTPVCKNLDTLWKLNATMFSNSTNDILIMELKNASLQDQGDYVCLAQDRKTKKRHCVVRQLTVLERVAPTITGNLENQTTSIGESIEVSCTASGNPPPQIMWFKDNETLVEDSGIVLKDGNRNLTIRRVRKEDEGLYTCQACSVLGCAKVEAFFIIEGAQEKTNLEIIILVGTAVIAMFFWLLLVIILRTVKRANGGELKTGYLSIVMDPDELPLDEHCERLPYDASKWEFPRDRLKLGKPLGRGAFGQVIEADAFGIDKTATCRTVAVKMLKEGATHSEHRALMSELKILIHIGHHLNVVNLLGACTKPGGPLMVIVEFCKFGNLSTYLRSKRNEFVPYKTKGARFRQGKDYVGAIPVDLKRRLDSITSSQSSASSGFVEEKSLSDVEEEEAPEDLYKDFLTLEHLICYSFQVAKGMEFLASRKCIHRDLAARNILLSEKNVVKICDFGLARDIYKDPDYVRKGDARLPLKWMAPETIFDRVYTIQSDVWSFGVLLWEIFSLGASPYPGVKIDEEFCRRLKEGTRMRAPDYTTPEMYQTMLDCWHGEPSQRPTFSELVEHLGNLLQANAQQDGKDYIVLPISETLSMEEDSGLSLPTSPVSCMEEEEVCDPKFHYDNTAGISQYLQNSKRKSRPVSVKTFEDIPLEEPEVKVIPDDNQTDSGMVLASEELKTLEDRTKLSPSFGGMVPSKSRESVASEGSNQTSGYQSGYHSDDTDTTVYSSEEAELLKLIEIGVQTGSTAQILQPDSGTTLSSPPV

[4] = Crystalline form after micronization (XRPD, DSC, HSM); format: physicochemical; conditions: micronized, D90≤15 μm
Procedure: The pressure of the micronization equipment was set to be ≥0.65 MPa to obtain an EOC315 crystalline form micropowder, with a particle size D90≤15 μm. The X-ray powder diffraction, DSC, and HSM data of the micronized sample were measured using the aforementioned methods, and the results are shown in FIG. 2, FIG. 4, and FIG. 6.

Row | SMILES | IC50 [1] | proportion of patients without tumor-progression within 6 months ([2]; Kaplan-Meier analysis) | 1-year survival rate [2] | median progression-free survival (PFS) [2] | objective response rate (ORR) ([2]; 39 evaluable subjects) | subjects with complete response ([2]; 39 evaluable subjects) | subjects with partial response ([2]; 39 evaluable subjects) | subjects with stable condition maintained more than 12 weeks ([2]; 39 evaluable subjects) | median overall survival (OS) ([2]; estimated) | median time to progression ([2]; patients showing tumor remission) | IC50 [3] | crystalline form after micronization [4]
1 | CNC(=O)c1cc(OCc2nnc(Nc3ccc(Cl)cc3)c3ccoc23)ccn1 [EOC315, 4-(4-chloroanilino)-7-(2-methylaminocarbonyl-4-oxymethyl) pyridylfuro[2,3-d]pyridazine mesylate] | 15 nM | 52% | 33% | 4.5 months | 67% | 2.6% | 64.1% | 28.2% | 7.8 months | 6.4 months | 6 nM | –
2 | CNC(=O)c1cc(OCc2nnc(Nc3ccc(Cl)cc3)c3ccoc23)ccn1 [micronized EOC315] | – | – | – | – | – | – | – | – | – | – | – | remained unchanged
